Test: Retest of solid form by PXRD after storage
Type: physicochemical
Settings: after 1 month storage
Protocol: Unless recited otherwise, X-Ray powder diffraction data was obtained by using methods known in the art using a SCINTAG powder X-Ray diffractometer model X'TRA equipped with a solid-state detector. Copper radiation of 1.5418 Å was used. A round aluminum sample holder with zero background was used. The scanning parameters included: range: 2-40 degrees two-theta; scan mode: continuous scan; step size: 0.05 deg.; and a rate of 3 deg/min.
The product was isolated by vacuum filtration and dried at 40° C. for 16 hours to obtain STG lactate crystalline form L3.

- Polymorphic form found by PXRD after storage: transform to form L1
Structure (SMILES): CC(O)C(=O)O.N[C@@H](CC(=O)N1CCn2c(nnc2C(F)(F)F)C1)Cc1cc(F)c(F)cc1F [Form L3, Sitagliptin lactate]

— patent US8329696B2, “Solid state forms of sitagliptin salts” (Teva Pharmaceuticals Industries Ltd., priority 2009, dated 2012)
